{"source": "patent US20210401776A1", "about": "“METHOD OF TREATING […] SYNDROMES USING FENFLURAMINE ENANTIOMERS” (ZOGENIX INTERNATIONAL LIMITED, priority 2018, published 2021)", "key": {"[1]": {"tested_on": "homozygous scn1Lab−/− mutants", "experiment": "zebrafish locomotor assay (total distance in large movements, lardist)", "type": "in vivo, zebrafish (Danio rerio)", "conditions": "for reduction in seizure behavior: fixed concentration, FIG. 3", "excerpt": "(Baraban et al, 2013). Additional phenotypes of these mutants include: abnormal optokinetic response (OKR; 5 dpf); darkened pigmentation; death by 14 dpf; spontaneous seizure-like activity; abnormal (forebrain electrographic activity (3-7 dpf); seizure activity; lower levels of serotonin in scn1lab^−/− head homogenates at 7 dpf; zebrafish express orthologs of human serotonin (5HT) receptor subtypes at 5 dpf; nighttime hyperactivity (5 dpf); in open field-increased thigmotaxis. decreased movement (at 5 dpf); no differences in GABAergic neurons compared to wild type (5 dpf); 5-HT2a (hitr2aa/b) and S-HT2c; (htr2c11) orthologs expressed in larval heads in wild-type and scn1lab−/− mutants and in adult wild-type brains.\nTo assay the locomotor activity of homozygous scn1Lab−/− mutants and control WT scn1Lab+/+, zebrafish larvae were placed one larva per well in a 96-well plate in 100 μL of embryo medium from 4 to 8 days post-fertilization (dpf). Each day the larvae are tracked in an automated tracking device (ZebraBox™ apparatus; Viewpoint, Lyon, France) for 10 min after 30 min habituation (100-second integration interval). All recordings were performed at the same time during daytime period. The total distance in large movements was recorded and quantified using ZebraLab™ software (Viewpoint, Lyon, France). Data was pooled together from at least three independent experiments with at least 24 larvae per condition.\nScn1Lab^−/− mutants and WT scn1Lab+/+ larvae are arrayed in the same plate and treated at 6 days post fertilization (dpf) with the test compounds (25 μM), or VHC in individual wells of a 96-well plate. After incubation at 28° C. on a 14/10 hour light/dark cycle and 30-min chamber habituation 6 and 7 dpf larvae are tracked for locomotor activity for 10 min (100-second integration interval) under dark conditions. An incubation time of 1.5 hours is further referred to as short treatment (6 dpf). Furthermore, these larvae are analyzed after more than 22 hours incubation (7 dpf), i.e. long treatment. The total locomotor activity is quantified using the parameter lardist and plotted in cm. Data for each compound is pooled together from multiple independent experiments with at least 9 larvae per treatment condition."}, "[2]": {"tested_on": "homozygous scn1Lab−/− mutants", "experiment": "epileptiform activity, open-field recordings in larval forebrain (LFP assay)", "type": "in vivo, zebrafish (Danio rerio)", "conditions": "for anti-epileptiform activity (frequency and cumulative duration of epileptiform events over 10 minutes): 50 micromolar, FIGS. 4 and 5; for LFP Assay: Table 1, 25, 59 and 100 μM, oral via embryo medium"}, "[3]": {"tested_on": "WT scn1Lab+/+ zebrafish larvae", "experiment": "maximal tolerated concentration (MTC)", "type": "in vivo, zebrafish (Danio rerio)", "conditions": "no signs of toxicity in 12 out of 12 larvae within 48 hours of exposure", "procedure": "To evaluate the maximal tolerated concentration (MTC) of each compound, 6 dpf-old WT scn1Lab+^+/+ zebrafish larvae were incubated in a 96-well plate (tissue culture plate, flat bottom, FALCON®, USA) with different concentrations of compound or VHC at 28° C. on a 14/10 hour light/dark cycle under standard aquaculture conditions (medium is replenished daily). Each larva was individually checked under the microscope during a period of 48 hours for the following signs of toxicity: decreased or no touch response upon a light touch of the tail, loss of posture, body deformation, edema, changes in heart rate or circulation and death. […] MTC was determined as 100 micromolar (μM) for (+)-fenfluramine and both norfenfluramine enantiomers. A MTC of 50 μM was determined for (−)-fenfluramine."}, "dizocilpine-treated mice [4]": {"tested_on": "dizocilpine-treated mice", "experiment": "spontaneous alternation in the Y-maze, dizocilpine-induced amnesia model", "type": "in vivo, Male Swiss OF-1 mice"}, "dizocilpine-treated mice [5]": {"tested_on": "dizocilpine-treated mice", "experiment": "step-through passive avoidance, dizocilpine-induced amnesia model", "type": "in vivo, Male Swiss OF-1 mice"}, "dizocilpine-treated mice [6]": {"tested_on": "dizocilpine-treated mice", "experiment": "dizocilpine-induced learning deficits, statements covering both tests (Y-maze and passive avoidance)", "type": "in vivo, Male Swiss OF-1 mice", "procedure": "Experiments were conducted to determine the dose-response effects of fenfluramine (FEN) and norfenfluramine (NOR), racemate and (+)- and (−)-isomers, in an in vivo mouse model; the dizocilpine-induced amnesia model (described below) is used to test responses to drugs acting at the sigma-1 receptor (S1R) (Maurice et al., 1994a,b; Maurice, et al., 1998, Neuroscience 83:413-428).\nThe drugs were administered intraperitoneally (“ip” or “IP”) with dizocilpine (0.15 mg/kg) and tested in the spontaneous alternation test on day 1 and in the passive avoidance test on days 2-3.\nThe apparatus consisted of a 2-compartment box, with one illuminated with white polyvinylchloride (PVC) walls and a transparent cover (15×20×15 cm high), one with black polyvinylchloride walls and cover (15×20×15 cm high), and a grid floor. A guillotine door separated each compartment. A 60 W lamp was positioned 40 cm above the apparatus lit the white compartment during the experimental period. Scrambled foot shocks (0.3 mA for 3 s) were delivered to the grid floor using a shock generator scrambler (Lafayette Instruments, Lafayette, Mass., USA). The guillotine door was initially closed during the training session. Each mouse was placed into the white compartment. After 5 s, the door was raised. When the mouse entered the darkened compartment and placed all its paws on the grid floor, the door was gently closed and the 3-scrambled foot shock was delivered for 3 s. The step-through latency, i.e., the latency spent to enter the dark compartment, and the level of sensitivity to the shock were recorded. The latter was evaluated as: 0=no sign; 1=flinching reactions; 2=flinching and vocalization reactions. The retention test was carried out 24 h after training. Each mouse was placed again into the white compartment. After 5 s, the door was raised. The step-through latency was recorded up to 300 s. Animals entered the darkened compartment or were gently pushed into it and the escape latency, i.e., the time spent to return into the white compartment, was also measured up to 300 s. Results were expressed as median and interquartile (25%-75%) range.\nThe Y-maze is made of grey PVC. Each arm is 40 cm long, 13 cm high, 3 cm wide at the bottom, 10 cm wide at the top, and converged at an equal angle. Each mouse was placed at the end of one arm and allowed to move freely through the maze during an 8-min session. The series of arm entries, including possible returns into the same arm, were checked visually. An alternation was defined as entries into all three arms on consecutive occasions. The number of maximum alternations was therefore the total number of arm entries minus two and the percentage of alternation was calculated as: actual alternations/maximum alternations)×100. Parameters included the percentage of alternation (memory index) and total number of arm entries (exploration index)."}, "[7]": {"conditions": "in vivo; cited from earlier work"}}, "note": "“Also recorded” adds a separate entry of the source.", "data": [{"smiles": "CCN[C@@H](C)Cc1cccc(C(F)(F)F)c1", "note": "[(+)-Fenfluramine, (2S)-N-ethyl-1-[3-(trifluoromethyl)phenyl]propan-2-amine]", "values": [{"measurement": "Conclusions", "setting": "[1]; Table 1, locomotor and LFP assays", "result": "(+)-FFA is more effective than racemic FFA"}, {"measurement": "antiseizure activity in the zebrafish locomotor assay", "setting": "[1]; scn1Lab−/− mutants", "result": "more efficacious than (−)-fenfluramine"}, {"measurement": "reduction in seizure behavior", "setting": "[1]; scn1Lab−/− mutants", "result": 84, "unit": "%"}, {"measurement": "potency in treating symptoms of epilepsy compared to levofenfluramine", "setting": "[1]; zebrafish, in vivo", "result": "approximately twice"}, {"measurement": "anti-epileptiform activity (frequency and cumulative duration of epileptiform events over 10 minutes)", "setting": "[2]", "result": "comparable"}, {"measurement": "LFP Assay", "setting": "[2]", "result": "Most effective in reducing spikes; also recorded: Normal dose-response; higher"}, {"measurement": "maximum tolerated concentration (MTC)", "setting": "[3]", "result": 100, "unit": "µM"}, {"measurement": "PP (%)", "setting": "dizocilpine-treated mice [4]; Table 3 Y-Maze, drug alone 0.1 mg/kg IP", "result": "1.3 ± 7.9", "unit": "%"}, {"measurement": "PP (%)", "setting": "dizocilpine-treated mice [4]; Table 3 Y-Maze, drug alone 0.3 mg/kg IP", "result": "37.9 ± 9.4 ^2%"}, {"measurement": "PP (%)", "setting": "dizocilpine-treated mice [4]; Table 5 YMT, drug alone 0.1 mg/kg ip", "result": "8.68 ± 8.7", "unit": "%"}, {"measurement": "PP (%)", "setting": "dizocilpine-treated mice [4]; Table 5 YMT, drug alone 0.3 mg/kg ip", "result": "40.2 ± 11.3^3%"}, {"measurement": "PP (%)", "setting": "dizocilpine-treated mice [4]; Table 6 YMT, drug alone 0.1 mg/kg ip", "result": "0.4 ± 11.5", "unit": "%"}, {"measurement": "PP (%)", "setting": "dizocilpine-treated mice [4]; Table 6 YMT, drug alone 0.3 mg/kg ip", "result": "46.7 ± 8.9 ^3%"}, {"measurement": "PP (%)", "setting": "dizocilpine-treated mice [5]; Table 3 StepThrough/PassiveAvoidance, drug alone 0.1 mg/kg IP", "result": "9.0 ± 15.8", "unit": "%"}, {"measurement": "PP (%)", "setting": "dizocilpine-treated mice [5]; Table 3 StepThrough/PassiveAvoidance, drug alone 0.3 mg/kg IP", "result": "24.8 ± 14.9 ^4%"}, {"measurement": "PP (%)", "setting": "dizocilpine-treated mice [5]; Table 5 STPA, drug alone 0.1 mg/kg ip", "result": "11.6 ± 13.6", "unit": "%"}, {"measurement": "PP (%)", "setting": "dizocilpine-treated mice [5]; Table 5 STPA, drug alone 0.3 mg/kg ip", "result": "35.2 ± 14.2^6%"}, {"measurement": "PP (%)", "setting": "dizocilpine-treated mice [5]; Table 6 STPA, drug alone 0.1 mg/kg ip", "result": "15.6 ± 17.3", "unit": "%"}, {"measurement": "PP (%)", "setting": "dizocilpine-treated mice [5]; Table 6 STPA, drug alone 0.3 mg/kg ip", "result": "31.9 ± 16.3 ^6%"}, {"measurement": "behavior in vivo at S1R", "setting": "dizocilpine-treated mice [6]; mouse, in vivo", "result": "behaved in vivo as S1R positive modulators"}, {"measurement": "mean elimination half-life", "setting": "[7]", "result": 19, "unit": "h"}]}, {"smiles": "CCN[C@H](C)Cc1cccc(C(F)(F)F)c1", "note": "[(−)-Fenfluramine, (2R)-N-ethyl-1-[3-(trifluoromethyl)phenyl]propan-2-amine]", "values": [{"measurement": "reduction in seizure behavior", "setting": "[1]; scn1Lab−/− mutants", "result": 41, "unit": "%"}, {"measurement": "anti-epileptiform activity (frequency and cumulative duration of epileptiform events over 10 minutes)", "setting": "[2]", "result": "comparable"}, {"measurement": "LFP Assay", "setting": "[2]", "result": "Also reduces spikes but less; also recorded: Normal dose-response; higher"}, {"measurement": "maximum tolerated concentration (MTC)", "setting": "[3]", "result": 50, "unit": "µM"}, {"measurement": "PP (%)", "setting": "dizocilpine-treated mice [4]; Table 4 Y Maze, drug alone 0.3 mg/kg IP", "result": "3.2 ± 8.1", "unit": "%"}, {"measurement": "PP (%)", "setting": "dizocilpine-treated mice [4]; Table 4 Y Maze, drug alone 1 mg/kg IP", "result": "13.8 ± 10.5 ^2%"}, {"measurement": "PP (%)", "setting": "dizocilpine-treated mice [5]; Table 4 StepThrough/PassiveAvoidance, drug alone 0.3 mg/kg IP", "result": "3.9 ± 8.4", "unit": "%"}, {"measurement": "PP (%)", "setting": "dizocilpine-treated mice [5]; Table 4 StepThrough/PassiveAvoidance, drug alone 1 mg/kg IP", "result": "7.3 ± 13.8 ^4%"}, {"measurement": "effect on PRE-084 efficacy", "setting": "dizocilpine-treated mice [6]; 1 mg/kg on effective doses of PRE-084 (0.3-1 mg/kg), FIG. 10 (e, f)", "result": "without effect on PRE-084 efficacy"}, {"measurement": "effect on PRE-084 efficacy", "setting": "dizocilpine-treated mice [6]; combined with PRE-084 in dizocilpine-treated mice", "result": "without any effect on PRE-084 efficacy"}, {"measurement": "behavior as S1R antagonist", "setting": "dizocilpine-treated mice [6]; mouse, in vivo", "result": "does not behave as a S1R antagonist"}, {"measurement": "mean elimination half-life", "setting": "[7]", "result": 25, "unit": "h"}]}]}
